Consider 1 molecule from patent publication US12304894B2, “Derivatives of adamantyl oxadiazoles and pharmaceutically acceptable solvates, hydrates and salts thereof, pharmaceutical composition comprising same, synthesis method, suitable for use as effective and selective inhibitors of the reductase activity of the enzyme 11-beta dehydrogenase type 1 …” (PONTIFICIA UNIVERSIDAD CATOLICA DE CHILE, priority 2019, dated 2025).

A short description of the data set: In vivo pharmacokinetics in mice, IV and oral. The arrangement: species or system male C57BL/6J mice. As for the experimental part:
The animals were classified according to weight and divided into the following groups (Table 7):
20% Kolliphor and 50% PBS at a concentration of 1 mg/mL. From this solution, a 0.4 mg/mL dilution was made for IV administration.
In intravenous (IV) administration, after each compound was administered to the mice, the mice were separated into groups of 3 and were euthanized at times 5, 10, 15, 30, 60, 120, 240, 260, 480 and 1440 minutes. For oral administration (V.O), the mice were separated into groups of 3 and were euthanized at times 15, 30, 60, 120, 240, 260, 480 and 1440 minutes. To obtain zero-time assays, mice were used to which no compound was administered.
Whole blood was obtained from each animal (in microtubes with EDTA); these samples were centrifuged at 9000 g at a temperature of 4° C. for a period of 5 minutes, obtaining the plasma which was stored at −80° C.
In addition, organs such as brain, liver, muscle, epididymal fat, heart and kidney were obtained from the animals, which were frozen in liquid nitrogen and stored at −80° C.
Plasma samples and brain, liver, epididymal fat, and muscle (tissue) samples were analyzed. 2× in volume of water (weight/volume) was added to the tissue samples while 4× in volume of water (weight/volume) was added to the muscle mixture, after which they were homogenized using a Bullet Blender equipment (Next Advance, USA).
All samples were analyzed as a single point by LC-MS/MS in accordance with the analytical methodology already standardized and presented in application example 3.
To begin, a calibration curve was run. For this purpose, the controls, the plasma and organ samples were prepared by adding 180 μL of cold acetonitrile to these, then vortexed for 15 seconds and centrifuged at 6100 g for 30 seconds at 4° C. The supernatant which was obtained from this procedure was diluted in 2 volumes of 0.2% formic acid in water and transferred to a vial that will allow it to be injected into LC-MS/MS.
The conditions for the LC-MS/MS analysis were: • HPLC: Eksigent UltraLC 100 • Autosampler: Eksigent UltraLC 100-XL at RT • Mobile phase: A-0.1% formic acid in water; B-0.1% formic acid in acetonitrile. • Column: YMC Triart 1.9 μm; 2.0×50 mm • Injection volume: 2 μL • Gradient: 5% B for 0.25 min→5-95% B for 0.75 min→95% B for 2 min→95-5% B for 0.25 min→5% B for 0.25 min • Flow: 0.6 mL/min • Mass Spectrometer: Applied Biosystems/SCIEX QTRAP 4500 • Interface: TurbolonSpray (ESI) at 600° C. • Software: Analyst.

For `Cc1cccc(CCc2nc(C34CC5CC(CC(C5)C3)C4)no2)c1` [BD-40, 1-(3-methylphenyl)-2-(3-adamantyl-1,2,4-oxadiazol-5-yl)ethane], for the setting “IV, 2 mg/Kg, plasma”, the AUCExtr was determined as 5.240%, the AUCInf is 623 ng·h/mL, the AUCfinal is 649 ng·h/mL and the C0/Cmax was 2200 ng/mL. Under “IV, 2 mg/Kg, plasma”, this molecule returned a CL of 53.5 mL/min/kg, an MRTInf of 87.6 min, a Vz of 15.30 L/kg and a t1/2 of 198 min. Under “PO, dose 3 mg/Kg, plasma”, this molecule registered an AUCExtr of 3.6%, an AUCInf of 596 ng·h/mL, an AUCfinal of 575 ng·h/mL and a C0/Cmax of 393 ng/mL. For the same molecule, under “PO, dose 3 mg/Kg, plasma”, the CL was determined as 280 mL/min/kg, the F is 19.1%, the Vz is 168 L/kg and the t1/2 came to 32.3 min. The tmax (PO, dose 3 mg/Kg, plasma) was 30 min. Further, for the setting “administered intravenously, plasma”, the “mean time (of elimination) of the drug” value was 3.30 h. For the same molecule, under “administered orally, plasma”, the “mean time (of elimination) of the drug” value is 0.864 h. The “detection in tissues (brain, liver, fat, muscle)” value (oral and intravenous administration) is “can be detected in the different tissues”. For the setting “plasma”, the “bioavailability / apparent availability” value is listed as “good bioavailability”.
